According to patent US9708247B2, “Modulators of the eIF2alpha pathway” (The Regents of the University of California, priority 2013, dated 2017):
Entries after “also recorded” stand apart in the source; their conditions may differ.

How the values were obtained:
eIF2α (S51D) = assay: Polysome gradient analysis in HEK293Trex cells expressing eIF2α(S51D); type: cell-based, human; details: 25 nM doxycycline 14 h, 200 nM ISRIB
Procedure: The coding sequences of wild type mouse eIF2α, phosphomimetic (S51D) mutant was amplified by PCR from a mammalian expression vector (kind gift of David Ron). BamHI and EcoRI recognition sites were engineered into the primers. In addition a Kozak consensus sequence and a N-terminal FLAG epitope tag were engineered in the forward primer. […]. Mouse Embryonic Fibroblasts (MEFs) or TREx-293 cells expressing eIF2α(S51D) were seeded on 150 mm plates and allowed to grow to 80% confluence. Cells were then induced with 25 nM doxycycline for 14 h and subsequently treated with the appropriate compounds for the indicated times. 100 μg/ml of cycloheximide was added to the cells for 1 min before lysis. Cells were washed twice with PBS supplemented with 100 μg/ml cycloheximide and subsequently lysed in 20 mM Tris pH 7.4, 200 mM NaCl, 15 mM MgCl, 1 mM DTT, 8% Glycerol, 100 μg/ml cycloheximide, 1% Triton X-100 and EDTA-free protease inhibitor tablets (Roche). Cells were scraped, collected, triturated with a 25^7/8 gauge needle, and the homogenate was centrifuged for 10 min at 10,000×g. The supernatant was loaded on a 10-50% sucrose gradient and sedimented in a SW40 rotor at 150,000×g for 2.4 h. The gradients were fractionated using a piston gradient fractionator (BioComp) and UV absorbance at 254 nm was monitored using a UV-Monitor (BioRad).

RPMI 8226 cells = assay: Multiple myeloma xenograft model (RPMI 8226, BALB/c scid mice); type: in vivo, mouse; details: 5 mg/kg orally, daily
CHOP and GADD34 mRNA = assay: qRT-PCR of CHOP and GADD34 mRNA in U2OS cells; type: cell-based, human; details: 2 μg/ml tunicamycin, 200 nM ISRIB
Procedure: FIGS. 4A-4B. ISRIB impairs induction of the transcriptional network controlled by ATF4; (FIG. 4A) ER-stress dependent induction of CHOP and GADD34 mRNA is impaired in cells treated with ISRIB; qPCR analysis of total RNA extracted from U2OS cells treated with 2 μg/ml of tunicamycin in the presence or absence of 200 nM ISRIB for the indicated times; mRNA levels for each sample were normalized to GAPDH (N=4); P values are derived from a one tail Student's t-test for unpaired samples; statistical significance: CHOP, P=0.0006 (*); GADD34, P=0.0008 (*); (FIG. 4B) ISRIB blocks CHOP production during ER stress; an immunofluorescence analysis of U2OS cells treated with 100 nM thapsigargin for 2 h in the presence or absence of 200 nM ISRIB is shown; a secondary Alexa Dye 488 anti-mouse antibody and rhodamine-phalloidin were used to visualize CHOP and actin, respectively.
U2OS cells were plated on 96 well plates and allowed to recover overnight. Cells were treated for the indicated times with the indicated compounds, lysed and cDNA was synthesized using the PowerSYBR Green Cells-to-CT kit (Ambion) following the manufacturer's recommendations. The reactions were ran in an Opticon 2 thermal cycler (BioRad) and analyzed with the Opticon Monitor v3 software (BioRad). […]

[1] = system: PERK signaling (ATF4, PERK, XBP1s); assay: Immunoblot analysis of PERK, ATF4 and XBP1s in HEK293T cells; type: cell-based, human
Procedure: Cells were lysed in SDS-PAGE loading buffer (1% SDS, 62.5 mM Tris-HCl pH 6.8, 10% glycerol). Lysates were sonicated and equal amounts were loaded on SDS-PAGE gels (BioRad). Proteins were transferred onto nitrocellulose and probed with primary antibodies diluted in Tris-buffered saline supplemented with 0.1% Tween 20 and 5% bovine serum albumin. The following antibodies were used: CREB-2 (C-20) (1:800) (Santa Cruz Biotechnologies); PERK (D11A8) (1:1000), PERK (C33E10) (1:1000), eIF2α (9722) (1:1000), phospho-eIF2α (Ser51) (D9G8) XP (3398) (1:1000) (Cell Signaling Technology); XBP1s (C-terminus) (1:500) (BioLegend); M2 Flag (1:1000) (Sigma). An HRP-conjugated secondary antibody (Amersham) was employed to detect immune-reactive bands using enhanced chemiluminescence (SuperSignal, Thermo Scientific).

HEK293T cells = type: cell-based, human; details: 2 μg/mL tunicamycin plus 200 nM ISRIB, 24 h
Source text: FIGS. 5A-5D. […]

## O=C(COc1ccc(Cl)cc1)NC1CCC(NC(=O)COc2ccc(Cl)cc2)CC1 (stereo not drawn) [ISRIB]
eIF2α (S51D)
  translational attenuation by eIF2α(S51D) expression: rescued translation
RPMI 8226 cells
  tumor growth / tumor size vs vehicle (in words): significant difference in tumor size; also recorded: significant reduction in the rate of tumor growth
RPMI 8226 cells; 26 days of dosing
  reduction in tumor size at the endpoint of the study: 50%
CHOP and GADD34 mRNA
  induction of GADD34 and CHOP mRNAs: significantly reduced their induction
[1]; ER stress plus 200 nM ISRIB
  XBP1 mRNA splicing and XBP1s production (IRE1 branch): persisted
[1]; ER-stressed HEK293T, 200 nM ISRIB
  PERK phosphorylation (mobility shift): did not inhibit the mobility shift of PERK
[1]; HEK293T, cysteine/methionine starvation or HRI activator 6 μM, 5 h, 200 nM ISRIB
  ATF4 induction after GCN2 or HRI activation: blocked ATF4 induction
[1]; HEK293T, tunicamycin or thapsigargin, 200 nM ISRIB, 3 h
  production of endogenous ATF4 upon ER stress: blocked production of endogenous ATF4
HEK293T cells
  cell survival of ER-stressed cells (colony number and size): strong synergistic effect
